Test results taken from ChEMBL document CHEMBL3885881, “DrugMatrix”.

Species: Rattus norvegicus
Assay: DrugMatrix - Regimen: Daily Repeat
Type: toxicity, organism-based, Sprague-Dawley
Parameters: regimen Daily Repeat, gender Male, age 6-8 weeks
Conditions: in vivo, po, 20 mg/kg, route oral GAVAGE, dose level High, vehicle 100 % WATER; for BASOPHIL / EOSINOPHIL / ERYTHROCYTE COUNT / HEMATOCRIT / HEMOGLOBIN / LEUKOCYTE COUNT / LYMPHOCYTE / MEAN CORPUSCULAR HEMOGLOBIN / MEAN CORPUSCULAR HEMOGLOBIN CONCENTRATION / MEAN CORPUSCULAR VOLUME / MONOCYTE / NEUTROPHIL / PLATELET COUNT: tissue Blood; for ALANINE AMINOTRANSFERASE / ALBUMIN / ALKALINE PHOSPHATASE / ASPARTATE AMINOTRANSFERASE / BLOOD UREA NITROGEN / CARBON DIOXIDE / CHLORIDE / CHOLESTEROL / CREATINE PHOSPHOKINASE / CREATININE / GLUCOSE / LACTATE DEHYDROGENASE / LIPASE / PHOSPHORUS / POTASSIUM / SODIUM / TOTAL BILIRUBIN / TOTAL PROTEIN / URIC ACID: tissue Plasma

## C=CC=O [ACROLEIN]
72 h, time 3 day
  BASOPHIL: 0.17%
  EOSINOPHIL: 1.23%
  ERYTHROCYTE COUNT: 6.79 x10E6/uL
  HEMATOCRIT: 44.43%
  HEMOGLOBIN: 14.33 G/DL
  LEUKOCYTE COUNT: 13.23 x10E3/uL
  LYMPHOCYTE: 50.33%
  MEAN CORPUSCULAR HEMOGLOBIN: 21.17 pg
  MEAN CORPUSCULAR HEMOGLOBIN CONCENTRATION: 32.27 G/DL
  MEAN CORPUSCULAR VOLUME: 65.47 fL
  MONOCYTE: 5.93%
  NEUTROPHIL: 40.03%
  PLATELET COUNT: 1336 x10E3/uL
  ALANINE AMINOTRANSFERASE: 33.67 u/L
  ALBUMIN: 3.47 G/DL
  ALKALINE PHOSPHATASE: 159 u/L
  ASPARTATE AMINOTRANSFERASE: 72.67 u/L
  BLOOD UREA NITROGEN: 13 mg/dL
  CARBON DIOXIDE: 27.67 mmol/L
  CHLORIDE: 105.67 MEQ/L
  CHOLESTEROL: 122.33 mg/dL
  CREATINE PHOSPHOKINASE: 216.67 u/L
  CREATININE: 0.43 mg/dL
  GLUCOSE: 151.67 mg/dL
  LACTATE DEHYDROGENASE: 35 u/L
  LIPASE: 24.33 u/L
  PHOSPHORUS: 11.6 mg/dL
  POTASSIUM: 5.87 MEQ/L
  SODIUM: 148 MEQ/L
  TOTAL BILIRUBIN: 0.27 mg/dL
  TOTAL PROTEIN: 5.43 G/DL
  URIC ACID: 1.27 mg/dL
120 h, time 5 day
  BASOPHIL: 0.23%
  EOSINOPHIL: 0.37%
  ERYTHROCYTE COUNT: 7 x10E6/uL
  HEMATOCRIT: 45.17%
  HEMOGLOBIN: 14.17 G/DL
  LEUKOCYTE COUNT: 18.4 x10E3/uL
  LYMPHOCYTE: 56.63%
  MEAN CORPUSCULAR HEMOGLOBIN: 20.2 pg
  MEAN CORPUSCULAR HEMOGLOBIN CONCENTRATION: 31.37 G/DL
  MEAN CORPUSCULAR VOLUME: 64.53 fL
  MONOCYTE: 5.23%
  NEUTROPHIL: 35.47%
  PLATELET COUNT: 1464.67 x10E3/uL
  ALANINE AMINOTRANSFERASE: 36.33 u/L
  ALBUMIN: 3.33 G/DL
  ALKALINE PHOSPHATASE: 202.33 u/L
  ASPARTATE AMINOTRANSFERASE: 71 u/L
  BLOOD UREA NITROGEN: 15 mg/dL
  CARBON DIOXIDE: 23.67 mmol/L
  CHLORIDE: 110.33 MEQ/L
  CHOLESTEROL: 106 mg/dL
  CREATINE PHOSPHOKINASE: 207.67 u/L
  CREATININE: 0.27 mg/dL
  GLUCOSE: 140 mg/dL
  LACTATE DEHYDROGENASE: 58 u/L
  LIPASE: 40.33 u/L
  PHOSPHORUS: 11.4 mg/dL
  POTASSIUM: 5.6 MEQ/L
  SODIUM: 152.33 MEQ/L
  TOTAL BILIRUBIN: 0.23 mg/dL
  TOTAL PROTEIN: 5.37 G/DL
  URIC ACID: 1.73 mg/dL
[…], time 14 day
  BASOPHIL: 0.9%
  EOSINOPHIL: 0.5%
  ERYTHROCYTE COUNT: 7.34 x10E6/uL
  HEMATOCRIT: 43.1%
  HEMOGLOBIN: 14.5 G/DL
  LEUKOCYTE COUNT: 33.86 x10E3/uL
  LYMPHOCYTE: 32.7%
  MEAN CORPUSCULAR HEMOGLOBIN: 19.8 pg
  MEAN CORPUSCULAR HEMOGLOBIN CONCENTRATION: 33.6 G/DL
  MEAN CORPUSCULAR VOLUME: 58.8 fL
  MONOCYTE: 5.2%
  NEUTROPHIL: 59.1%
  PLATELET COUNT: 2095 x10E3/uL
  ALANINE AMINOTRANSFERASE: 40 u/L
  ALBUMIN: 3.6 G/DL
  ALKALINE PHOSPHATASE: 220 u/L
  ASPARTATE AMINOTRANSFERASE: 68 u/L
  BLOOD UREA NITROGEN: 13 mg/dL
  CARBON DIOXIDE: 31 mmol/L
  CHLORIDE: 101 MEQ/L
  CHOLESTEROL: 116 mg/dL
  CREATINE PHOSPHOKINASE: 267 u/L
  CREATININE: 0.4 mg/dL
  GLUCOSE: 145 mg/dL
  LACTATE DEHYDROGENASE: 109 u/L
  LIPASE: 33 u/L
  PHOSPHORUS: 9.2 mg/dL
  POTASSIUM: 6.6 MEQ/L
  SODIUM: 147 MEQ/L
  TOTAL BILIRUBIN: 0.5 mg/dL
  TOTAL PROTEIN: 5.7 G/DL
  URIC ACID: 2.5 mg/dL
